Source: US11274115B2, “Imidazoquinoline derivatives and their use in therapy” (GLAXOSMITHKLINE BIOLOGICALS SA, priority 2016, dated 2022)
Where two headings read alike, the source gives them in different places.

Biological target: T1, human TLR8 (Homo sapiens, UniProt Q9NR97)
T1 construct: host or cells: HEK293
T1 sequence (Q9NR97 27-1041): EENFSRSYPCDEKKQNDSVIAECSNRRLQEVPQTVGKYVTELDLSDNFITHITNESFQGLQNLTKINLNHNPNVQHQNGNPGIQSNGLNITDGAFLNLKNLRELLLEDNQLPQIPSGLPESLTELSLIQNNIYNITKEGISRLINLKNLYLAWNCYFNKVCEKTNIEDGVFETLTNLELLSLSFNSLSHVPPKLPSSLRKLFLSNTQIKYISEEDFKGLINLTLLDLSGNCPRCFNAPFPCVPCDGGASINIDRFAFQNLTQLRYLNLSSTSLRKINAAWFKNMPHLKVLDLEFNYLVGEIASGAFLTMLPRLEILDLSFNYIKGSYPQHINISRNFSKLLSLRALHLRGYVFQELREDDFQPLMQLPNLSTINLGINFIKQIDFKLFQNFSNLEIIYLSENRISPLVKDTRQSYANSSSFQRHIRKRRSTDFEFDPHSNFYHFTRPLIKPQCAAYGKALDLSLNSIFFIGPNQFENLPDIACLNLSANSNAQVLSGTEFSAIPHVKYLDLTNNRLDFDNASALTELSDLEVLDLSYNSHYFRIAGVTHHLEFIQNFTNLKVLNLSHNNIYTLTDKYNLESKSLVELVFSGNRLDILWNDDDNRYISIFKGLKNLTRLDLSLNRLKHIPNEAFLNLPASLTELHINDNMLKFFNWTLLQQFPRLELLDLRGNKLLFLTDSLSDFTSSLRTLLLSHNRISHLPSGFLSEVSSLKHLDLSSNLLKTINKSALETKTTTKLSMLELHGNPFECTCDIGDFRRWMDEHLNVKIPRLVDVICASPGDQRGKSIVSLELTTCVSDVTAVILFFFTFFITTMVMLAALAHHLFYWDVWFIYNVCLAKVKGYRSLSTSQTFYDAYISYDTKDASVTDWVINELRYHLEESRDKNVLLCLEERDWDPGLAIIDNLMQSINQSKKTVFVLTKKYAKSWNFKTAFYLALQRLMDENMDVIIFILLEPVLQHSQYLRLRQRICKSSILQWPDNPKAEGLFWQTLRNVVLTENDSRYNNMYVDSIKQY
Test: hTLR8 agonist reporter assay in HEK293 cells (NFκB-SEAP)
Assay type: cell-based
Conditions: for EC50: read-out: hTLR8 ED50
Experimental: Assay for hTLR7 and hTLR8 Agonist Activity in HEK-293 Cells
Determination of TLR agonist activity was performed using the HEK293 […]. This assay measures TLR7 and TLR8 selectivity and potency of the compounds tested. HEK293 cells expressing human TLR7 or TLR8 and NFκB responsive Secreted Embryonic Alkaline Phosphatase (SEAP) reporter gene were obtained from InvivoGen (San Diego, Calif.). These cells were maintained in culture media of Dulbecco's Modified Eagle Medium (DMEM) (Invitrogen, Grand Island, N.Y.), 10% Fetal Bovine Serum (FBS) (Sigma, St. Louis, Mo.) and selection antibiotics (Invitrogen, and Invivogen). HEK293 stably transfected with human TLR7 (hTLR7) or human TLR8 (hTLR8) were stimulated for 24 h with aqueous formulations of test compounds and culture supernatants were analyzed for NFκB activation using the colorimetric SEAP detection kit QuantBlue (InvivoGen).

With CCCCCCCC/C=C\CCCCCCCC(=O)OC[C@H](COP(=O)(O)OCCOc1ccc2c(c1)nc(N)c1nc(CCCC)n(CCO)c12)OC(=O)CCCCCCC/C=C\CCCCCCCC [Example 1] the EC50 (Table 1, FIG. 2, 24 h stimulation, aqueous formulations) was 100 nM, the EC50 (Table 2, FIG. 4, another occasion, * = only very low levels of NFKB activation were detected) was 800 nM and the “hTLR8 agonist activity, in words” value (Table 3, FIG. 6) was “agonist of both TLR7 and TLR8”. For the same compound, the EC50 (Table 3, FIG. 6, another occasion, * = only very low levels of NFKB activation were detected) was 590 nM, the EC50 (Table 4, FIG. 8, another occasion) was 710 nM and the “hTLR8 agonist activity, in words” value (text on Table 1, FIG. 2) was “significantly more potent as an agonist of hTLR7 and hTLR8 than Comparative Example 2”. The “hTLR8 agonist activity, in words” value (text on Table 2, FIG. 4) was “more active than Comparative Example 2 as an agonist of hTLR7 and hTLR8”.
